Read-outs that look alike come from different tables or passages of the source. Positions of bridges follow the written chain, without caps; N, C: chain ends. Non-standard residues stand in square brackets, D forms with d. Residues, ends and D or L forms follow the SMILES beside them. ξ: configuration not given here. Phe(3,4-F2) = N[C@@H](Cc1ccc(F)c(F)c1)C(=O)O; Bip = N[C@@H](Cc1ccc(-c2ccccc2)cc1)C(=O)O; 1Nal = N[C@@H](Cc1cccc2ccccc12)C(=O)O; Bta = N[C@@H](Cc1csc2ccccc12)C(=O)O; Hyp = O=C(O)[C@@H]1C[C@@H](O)CN1; NMeF = CN[C@@H](Cc1ccccc1)C(=O)O; hPhe = N[C@@H](CCc1ccccc1)C(=O)O; NMeNle = CCCC[C@H](NC)C(=O)O; NMeM = CN[C@@H](CCSC)C(=O)O; ξY = NC(Cc1ccc(O)cc1)C(=O)O; NMeA = CN[C@@H](C)C(=O)O; Orn = NCCC[C@H](N)C(=O)O; Dab = NCC[C@H](N)C(=O)O; Dap = NC[C@H](N)C(=O)O; ξP = O=C(O)C1CCCN1; ξC = NC(CS)C(=O)O; Sar = CNCC(=O)O
Assays:
Human PD-L1/PD-1 = target: T1, Human PD-L1/PD-1 (Homo sapiens, UniProt Q9NZQ7); test: HTRF PD-1-Ig/PD-L1-His binding assay (human PD-L1); conditions: cluster symbol; read-out: HTRF IC50 cluster
T1 construct: made in house; host or cells: HEK293T
T1 sequence (Q9NZQ7 with tags, fused parts or gaps): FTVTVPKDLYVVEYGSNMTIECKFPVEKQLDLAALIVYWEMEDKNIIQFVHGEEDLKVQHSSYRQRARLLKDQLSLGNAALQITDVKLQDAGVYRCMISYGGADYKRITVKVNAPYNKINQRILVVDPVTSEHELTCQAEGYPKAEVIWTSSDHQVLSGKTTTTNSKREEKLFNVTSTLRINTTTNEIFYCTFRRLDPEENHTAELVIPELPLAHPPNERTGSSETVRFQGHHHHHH
Summary of the method: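 Soluble PD-1-Ig binding to PD-L1-His measured by HTRF in dPBS with 0.1% BSA and 0.05% Tween-20. Detection used europium cryptate anti-Ig antibody (1 nM final) and APC anti-His antibody (20 nM final) added on top of the binding reaction.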

[1] = target: T2, LK35.2-hPD-L1 cells / PE-labeled PD-1-Ig (Homo sapiens, UniProt Q9NZQ7); test: LK35.2-hPD-L1 cell binding high-content screening assay; format: cell-based; conditions: cluster symbol, read-out: CBA IC50 cluster
T2 construct: expressed in transfected cells; host or cells: LK35.2 mouse B cell line
T2 sequence (Q9NZQ7 19-290): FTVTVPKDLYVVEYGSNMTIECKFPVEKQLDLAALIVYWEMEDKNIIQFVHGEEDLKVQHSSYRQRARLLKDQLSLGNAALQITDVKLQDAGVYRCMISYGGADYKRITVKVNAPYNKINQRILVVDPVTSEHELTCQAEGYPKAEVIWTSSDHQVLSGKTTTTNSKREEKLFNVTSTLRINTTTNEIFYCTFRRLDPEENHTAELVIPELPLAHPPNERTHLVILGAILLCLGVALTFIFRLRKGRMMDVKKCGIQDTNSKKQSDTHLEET
Summary of the method: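 Mouse LK35.2 B cells stably over-expressing human PD-L1, cultured overnight, treated with compound plus PE-labeled human PD-1-Ig (1 nM final) in RPMI/10% FCS for 1 h at 37 °C. After washing, bound fluorescence quantified by high-content imaging.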

[2] = cell binding assay, cell line not given
[3] = cell line of CBA not given (LK35.2-hPD-L1 or 293T-hPD-L1)

Compound | IC50 (Human PD-L1/PD-1) [nM] | IC50 [1, 2] [nM] | IC50 [1, 3] [nM]
CCCC[C@H]1C(=O)N(C)CC(=O)N[C@@H](CC(=O)O)C(=O)N[C@@H](C(C)C)C(=O)N(C)[C@@H](Cc2ccccc2)C(=O)N[C@@H](Cc2ccc(O)cc2)C(=O)N(C)CC(=O)N[C@@H](Cc2cccc3ccccc23)C(=O)N[C@@H](Cc2ccc(O)cc2)C(=O)N[C@@H](CC(C)C)C(=O)N[C@H](C(=O)NCC(N)=O)CSCC(=O)N[C@@H](Cc2ccccc2)C(=O)N(C)[C@@H](Cc2ccccc2)C(=O)N1C [Example 3515] ({CH2CO}-F[NMeF][NMeNle][Sar]DV[NMeF]Y[Sar][1Nal]YLCG-NH2; thioether N-13) | 6.76 to 30.3 | 4.78 to 72.9 | 
CCCC[C@H]1C(=O)N[C@@H](CCCNC(=N)N)C(=O)N[C@H](C(=O)NCC(N)=O)CSCC(=O)N[C@@H](Cc2ccccc2)C(=O)N(C)[C@@H](C)C(=O)N[C@@H](CC(N)=O)C(=O)N2CCC[C@H]2C(=O)N[C@@H](Cc2cnc[nH]2)C(=O)N[C@@H](CC(C)C)C(=O)N(C)CC(=O)N[C@@H](Cc2c[nH]c3ccccc23)C(=O)N[C@@H](CO)C(=O)N[C@@H](Cc2c[nH]c3ccccc23)C(=O)N[C@@H](CCc2ccccc2)C(=O)N1C [Example 1006] ({CH2CO}-F[NMeA]NPHL[Sar]WSW[hPhe][NMeNle]RCG-NH2; thioether N-14) | > 30.5 |  | > 74.3
CCCC[C@H]1C(=O)N(C)[C@@H](CCSC)C(=O)N[C@@H](CCCNC(=N)N)C(=O)NC(C(=O)NCC(N)=O)CSCC(=O)N[C@@H](Cc2ccc(O)cc2)C(=O)N(C)[C@@H](C)C(=O)N[C@@H](CC(N)=O)C(=O)N2CCC[C@H]2C(=O)N[C@@H](Cc2cnc[nH]2)C(=O)N[C@@H](CC(C)C)C(=O)N2C[C@H](O)C[C@H]2C(=O)N[C@@H](Cc2c[nH]c3ccccc23)C(=O)N[C@@H](CO)C(=O)N[C@@H](Cc2csc3ccccc23)C(=O)N1C (stereo partly shown) [Example 9023] ({CH2CO}-Y[NMeA]NPHL[Hyp]WS[Bta][NMeNle][NMeM]R[ξC]G-NH2; thioether N-14) | 0.385 to 6.74 | 0.158 to 4.71 | 
CCCC[C@H]1C(=O)N(C)[C@@H](CCCC)C(=O)N[C@@H](CCCNC(=N)N)C(=O)N[C@H](C(=O)NCC(N)=O)CSCC(=O)N[C@@H](Cc2ccccc2)C(=O)N(C)[C@@H](C)C(=O)N[C@@H](CC(N)=O)C(=O)N2CCC[C@H]2C(=O)N[C@@H](Cc2cnc[nH]2)C(=O)N[C@@H](CCC(N)=O)C(=O)N(C)CC(=O)N[C@@H](Cc2c[nH]c3ccccc23)C(=O)N[C@@H](CO)C(=O)N[C@@H](Cc2c[nH]c3ccccc23)C(=O)N1C [Example 6006] ({CH2CO}-F[NMeA]NPHQ[Sar]WSW[NMeNle][NMeNle]RCG-NH2; thioether N-14) | 6.76 to 30.3 | 4.78 to 72.9 | 
CCCC[C@H]1C(=O)N(C)[C@@H](CCCC)C(=O)N[C@@H](CCCN)C(=O)N[C@H](C(=O)NCC(N)=O)CSCC(=O)N[C@@H](Cc2ccc(O)cc2)C(=O)N(C)[C@@H](C)C(=O)N[C@@H](CC(N)=O)C(=O)N2CCC[C@H]2C(=O)N[C@@H](CN)C(=O)N[C@@H](CC(C)C)C(=O)N2C[C@H](O)C[C@H]2C(=O)N[C@@H](Cc2c[nH]c3ccccc23)C(=O)N[C@@H](CCN)C(=O)N[C@@H](Cc2csc3ccccc23)C(=O)N1C [Example 1194] ({CH2CO}-Y[NMeA]NP[Dap]L[Hyp]W[Dab][Bta][NMeNle][NMeNle][Orn]CG-NH2; thioether N-14) | 0.385 to 6.74 |  | 0.158 to 4.71
CCCC[C@H]1C(=O)N(C)[C@@H](CCCC)C(=O)N[C@@H](CCCNC(=N)N)C(=O)N[C@H](C(=O)NCC(N)=O)CSCC(=O)N[C@@H](Cc2ccc(O)cc2)C(=O)N(C)[C@@H](C)C(=O)N[C@@H](CCCN)C(=O)N2CCC[C@H]2C(=O)N[C@@H](Cc2c[nH]cn2)C(=O)N[C@@H](CC(=O)O)C(=O)N2C[C@H](O)C[C@H]2C(=O)N[C@@H](Cc2c[nH]c3ccccc23)C(=O)N[C@@H](CO)C(=O)N[C@@H](Cc2c[nH]c3ccccc23)C(=O)N1C [Example 5105] ({CH2CO}-Y[NMeA][Orn]PHD[Hyp]WSW[NMeNle][NMeNle]RCG-NH2; thioether N-14) | 6.76 to 30.3 | 4.78 to 72.9 | 
CCCC[C@H]1C(=O)N(C)[C@@H](CCCC)C(=O)N[C@@H](CCCNC(=N)N)C(=O)N[C@H](C(=O)NCC(N)=O)CSCC(=O)N[C@@H](Cc2ccccc2)C(=O)N(C)[C@@H](C)C(=O)N[C@@H](CC(N)=O)C(=O)N2CCC[C@H]2C(=O)N[C@@H](CO)C(=O)N[C@@H](CC(C)C)C(=O)N(C)CC(=O)N[C@@H](Cc2c[nH]c3ccccc23)C(=O)N[C@@H](CO)C(=O)N[C@@H](Cc2c[nH]c3ccccc23)C(=O)N1C [Example 1088] ({CH2CO}-F[NMeA]NPSL[Sar]WSW[NMeNle][NMeNle]RCG-NH2; thioether N-14) | 6.76 to 30.3 |  | 4.78 to 72.9
CCCC[C@H]1C(=O)N(C)[C@@H](CCCC)C(=O)N[C@@H](CO)C(=O)N[C@H](C(=O)NCC(N)=O)CSCC(=O)N[C@@H](Cc2ccc(O)cc2)C(=O)N(C)[C@@H](C)C(=O)N[C@@H](CC(N)=O)C(=O)N2CCC[C@H]2C(=O)N[C@@H](Cc2c[nH]cn2)C(=O)N[C@@H](CCC(N)=O)C(=O)N2C[C@H](O)C[C@H]2C(=O)N[C@@H](Cc2c[nH]c3ccccc23)C(=O)N[C@@H](CO)C(=O)N[C@@H](Cc2c[nH]c3ccccc23)C(=O)N1C [Example 5121] ({CH2CO}-Y[NMeA]NPHQ[Hyp]WSW[NMeNle][NMeNle]SCG-NH2; thioether N-14) | 6.76 to 30.3 | 4.78 to 72.9 | 
CCCC[C@H]1C(=O)N(C)[C@@H](CCCC)C(=O)N[C@@H](CCCNC(=N)N)C(=O)N[C@H](C(=O)NCC(N)=O)CSCC(=O)N[C@@H](Cc2ccc(O)cc2)C(=O)N(C)[C@@H](C)C(=O)N[C@@H](CC(=O)O)C(=O)N2CCC[C@H]2C(=O)N[C@@H](Cc2cnc[nH]2)C(=O)N[C@@H](CC(C)C)C(=O)N2CCC[C@H]2C(=O)N[C@@H](Cc2c[nH]c3ccccc23)C(=O)N[C@@H](CO)C(=O)N[C@@H](Cc2c[nH]c3ccccc23)C(=O)N1C [Example 1122] ({CH2CO}-Y[NMeA]DPHLPWSW[NMeNle][NMeNle]RCG-NH2; thioether N-14) | 6.76 to 30.3 |  | 0.158 to 4.71
CCCC[C@H]1C(=O)N(C)[C@@H](CCCC)C(=O)N[C@@H](CCCN)C(=O)N[C@H](C(=O)NCC(N)=O)CSCC(=O)N[C@@H](Cc2ccc(O)cc2)C(=O)N(C)[C@@H](C)C(=O)N[C@@H](CC(N)=O)C(=O)N2CCC[C@H]2C(=O)N[C@@H](Cc2cnc[nH]2)C(=O)N[C@@H](CC(C)C)C(=O)N2C[C@H](O)C[C@H]2C(=O)N[C@@H](Cc2c[nH]c3ccccc23)C(=O)N[C@@H](CO)C(=O)N[C@@H](Cc2c[nH]c3ccccc23)C(=O)N1C [Example 1123] | 0.385 to 6.74 |  | 0.158 to 4.71
CCCC[C@H]1C(=O)N(C)[C@@H](CCCC)C(=O)N[C@@H](CCCNC(=N)N)C(=O)N[C@H](C(=O)NCC(N)=O)CSCC(=O)NC(Cc2ccc(O)cc2)C(=O)N(C)[C@@H](C)C(=O)N[C@@H](CC(N)=O)C(=O)N2CCCC2C(=O)N[C@@H](CN)C(=O)N[C@@H](CCC(=O)O)C(=O)N2CCC[C@H]2C(=O)N[C@@H](Cc2c[nH]c3ccccc23)C(=O)N[C@@H](CO)C(=O)N[C@@H](Cc2c[nH]c3ccccc23)C(=O)N1C (stereo partly shown) [Example 1091] ({CH2CO}-[ξY][NMeA]N[ξP][Dap]EPWSW[NMeNle][NMeNle]RCG-NH2; thioether N-14) | 0.385 to 6.74 |  | 0.158 to 4.71
CCCC[C@H]1C(=O)N(C)CC(=O)N[C@@H](CC(=O)O)C(=O)N[C@@H](C(C)C)C(=O)N(C)[C@@H](Cc2ccccc2)C(=O)N[C@@H](Cc2ccccc2)C(=O)N(C)CC(=O)N[C@@H](Cc2c[nH]c3ccccc23)C(=O)N[C@@H](Cc2ccc(O)cc2)C(=O)N[C@@H](CC(C)C)C(=O)N[C@H](C(=O)NCC(N)=O)CSCC(=O)N[C@@H](Cc2ccccc2)C(=O)N(C)[C@@H](Cc2ccccc2)C(=O)N1C [Example 3534] (HELM PEPTIDE1{[O=C(C[*:3])[*:2]].F.[meF].[CCCC[C@@H](C(=O)[*:2])N(C)[*:1]].[Sar].D.V.[meF].F.[Sar].W.Y.L.C.G.[am]}$PEPTIDE1,PEPTIDE1,1:R3-14:R3$$$V2.0) | 6.76 to 30.3 | 4.78 to 72.9 | 
CCCC[C@H]1C(=O)N(C)CC(=O)N[C@@H](CC(N)=O)C(=O)N[C@@H](C(C)C)C(=O)N(C)[C@@H](Cc2ccccc2)C(=O)N[C@@H](Cc2ccc(O)cc2)C(=O)N(C)CC(=O)N[C@@H](Cc2c[nH]c3ccccc23)C(=O)N[C@@H](Cc2ccc(O)cc2)C(=O)N[C@@H](CCCN)C(=O)N[C@H](C(=O)NCC(N)=O)CSCC(=O)N[C@@H](Cc2ccccc2)C(=O)N[C@@H](Cc2ccc(-c3ccccc3)cc2)C(=O)N1C [Example 3611] ({CH2CO}-F[Bip][NMeNle][Sar]NV[NMeF]Y[Sar]WY[Orn]CG-NH2; thioether N-13) | > 30.5 | > 74.3 | 
CCCC[C@H]1C(=O)N(C)[C@@H](CCCC)C(=O)N[C@@H](CCCNC(=N)N)C(=O)N[C@H](C(=O)NCC(N)=O)CSCC(=O)N[C@@H](Cc2ccc(F)c(F)c2)C(=O)N(C)[C@@H](C)C(=O)N[C@@H](CC(N)=O)C(=O)N2CCC[C@H]2C(=O)N[C@@H](Cc2cnc[nH]2)C(=O)N[C@@H](CC(C)C)C(=O)N(C)CC(=O)N[C@@H](Cc2c[nH]c3ccccc23)C(=O)N[C@@H](CO)C(=O)N[C@@H](Cc2c[nH]c3ccccc23)C(=O)N1C [Example 1104] ({CH2CO}-[Phe(3,4-F2)][NMeA]NPHL[Sar]WSW[NMeNle][NMeNle]RCG-NH2; thioether N-14) | 6.76 to 30.3 |  | 4.78 to 72.9

— US9850283B2, “Macrocyclic inhibitors of the PD-1/PD-L1 and CD80(B7-1)/PD-L1 protein/protein interactions” (BRISTOL-MYERS SQUIBB COMPANY, priority 2013, dated 2017)
